Experimental data as given in patent US20230265336A1, “COMPOSITION WITH FOAMING PROPERTIES” (priority 2020, published 2023).

Key:
[1] = based on the safety data sheet (SDS); cited from earlier work

[O]=[Mg] [MgO]
Solubility in brine (in words): insoluble

[Cl-].[Cl-].[Mg+2] [magnesium chloride]
Biodegradability (in words) [1]: good biodegradability
Toxicity as an individual substance (in words) [1]: non-toxic
